Substitutions are numbered along the chain they refer to.
Key:
FicD^WT [1] = molecular target: T1, FicD^WT (Homo sapiens, UniProt Q9BVA6); assay: In vitro deAMPylation of Δ26hBiP^T229A-AMP by FicD^WT (Western blot); format: biochemical; conditions: 100 μM metabolite, 5 mM MgCl2
T1 construct: soluble ER luminal domain (residues 105 to 458) of wild-type human FicD; 6xHis-Sumo (N, cleaved yes); made in house; host or cells: Rosetta(DE3) E. coli
T1 sequence (Q9BVA6 105-458): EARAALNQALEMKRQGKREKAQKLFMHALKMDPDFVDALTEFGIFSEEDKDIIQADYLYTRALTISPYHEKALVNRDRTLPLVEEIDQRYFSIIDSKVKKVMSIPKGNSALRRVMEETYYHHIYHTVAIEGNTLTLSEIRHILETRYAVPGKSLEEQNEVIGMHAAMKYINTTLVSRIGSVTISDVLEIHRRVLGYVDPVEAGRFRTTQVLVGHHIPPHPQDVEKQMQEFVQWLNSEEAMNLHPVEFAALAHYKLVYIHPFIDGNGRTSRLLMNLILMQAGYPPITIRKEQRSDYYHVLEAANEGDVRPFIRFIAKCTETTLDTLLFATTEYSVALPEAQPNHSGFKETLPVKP
Source text: (§1) We next sought to assess the effects of FPP, GPP, and isoprenoid analogues on FicD activity. To accurately judge the effects of small molecules on FicD AMPylation activity, we used the ATPase defective BiP^T229A mutant as substrate ([22], [49], [50]). Loss of ATP hydrolysis by the BiP mutant ensures: 1. conformational homogeneity of the BiP protein substrate; 2. lack of BiP competition for the ATP substrate; and 3. no production of ADP, a competitive inhibitor for ATP. In addition, we deleted the first 25 amino acids of BiP for ease with its purification and solubility. […]
For deAMPylation assays with FicD and BiP, Δ26hBiPT229A was in-vitro AMPylated by […]
5mM MgCl2, 500uM ATP, 0.5% CHAPS, 1mM DTT. After one hour of incubation at 30-37C, the entire reaction mix was transferred into an Amicon 0.5mL 50kDa MWCO concentrator (cat no.
7.4/150mM NaCl/10% glycerol/1mM DTT was added to the concentrated AMPylation reaction and then spun down again at 14,000 x g at 4C for 5-10 minutes. This step was repeated four times to buffer exchange AMPylated Δ26hBiPT229A.
Δ104hFicDWT and Δ26hBiPT229A-AMP were combined at a ratio of 1:80 in buffer containing 25mM HEPES pH 7.4, 100mM KCl, 5mM MgCl2, 1mM DTT and the indicated small molecule where applicable. Reactions were incubated at 37C for 1 hour and stopped by the addition EDTA. 5X SDS sample buffer (250mM Tris pH 6.8, 10% Lithium dodecyl sulfate, 50% glycerol, 50mM DTT, 0.05% Bromophenol blue) was then added to the reactions and reactions were heated for 5 minutes at […]

FicD^WT [2] = molecular target: T1, FicD^WT; assay: In vitro AMPylation of Δ26hBiP^T229A by FicD^WT (Western blot); format: biochemical; conditions: 100 μM metabolite, 500 μM ATP, 5 mM MgCl2
Source text: as §1
For AMPylation assays with FicD and BiP, Δ104FicDWT and Δ26hBiPT229A were combined at a ratio
of 1:80 in buffer containing 25mM HEPES pH 7.4, 100mM KCl, 5mM MgCl2, 500μM ATP, 1mM
DTT, and small molecule where indicated. Assays with Δ104FicDWT were incubated for 1 hour.
the amount of FicD as in reactions containing FicDWT and were incubated at 37C for 4.5 hours. […]

FicD^L258D [3] = molecular target: T2, FicD^L258D (Homo sapiens, UniProt Q9BVA6, L258D); assay: Differential scanning fluorimetry (DSF) thermal shift with FicD^L258D; format: binding
T2 construct: soluble ER luminal domain (residues 105 to 458) of wild-type human FicD and three mutants; 6xHis-Sumo (N, cleaved yes); made in house; host or cells: Rosetta(DE3) E. coli
T2 sequence (Q9BVA6 105-458 L258D): T1 sequence (Q9BVA6 105-458) with L154D
Method: Differential Scanning Fluorimetry
Thermal shift assays were performed in Biorad CfX384 Touch Real-Time PCR Detection System […]
Reactions contained 50mM HEPES pH 7.4, 200mM NaCl, 200mM KCl, 200uM DTT, 5X Invitrogen Sypro Orange (Cat no. S6650), 8-9μM protein, and indicated nucleotide, cofactor, or small molecule in a total volume of 20uL. For every experiment ‘no protein’ controls were also included with the same reaction conditions. All reactions were performed in technical triplicates. Sealed plates containing reaction mixes were centrifuged for 1-5 min at 1000 RPM prior to temperature scanning (FRET channel), which was performed from 6°C […]
DSF data was analyzed with traditional methods automated in a Python package (https://pypi.org/project/instawell/). Briefly, for each temperature, the RFU values of technical triplicates are averaged. For each timepoint, the background fluorescence was subtracted using the RFU values of the ‘no protein’ control. […]
calculated. The melting temperature (Tm) is defined as the first derivative peak value. Data

FicD^WT [4] = molecular target: T1, FicD^WT; assay: MIDAS equilibrium dialysis/mass spectrometry metabolite screen, FicD^WT; format: binding; conditions: cutoff Q < 0.05 and |Log2 corrected fold change| > 2, metabolites 5 µM
FicD^L258D [5] = molecular target: T2, FicD^L258D; assay: MIDAS metabolite screen, FicD^L258D; format: binding; conditions: cutoff Q < 0.05 and |Log2 corrected fold change| > 2, metabolites 5 µM
Source text: To identify small-molecule metabolite interactions with FicD, we applied an unbiased high-throughput screening approach known as MIDAS ([44]). Given the high concentrations of protein required for MIDAS screening, we purified the soluble ER luminal domain (residues 105 to 458) of wild-type human FicD and three mutants FicD^E234G, FicD^L258D, and FicD^H363A for screening (Fig. 1A). These mutants were selected based on their well-established biochemical features ([23], [24], [31]). All three are predicted to enhance detection of protein–metabolite interactions (PMIs) relative to FicD^WT through increased affinity for nucleotide substrates (FicD^E234G), improved solubility (FicD^L258D), and loss of catalytic turnover (FicD^H363A) (Fig. 1A). To decrease the potential for nonspecific small-molecule binding, we ensured the purity of our FicD proteins (SI Appendix, Fig. S1 A and B). As reported by other investigators ([24], [31]), we observe an increase in elution volume of the FicD^L258D mutant, consistent with its monomerization (SI Appendix, Fig. S1C).
Out of the 602 naturally occurring human metabolites in the MIDAS library, we applied a significance cutoff (q value < 0.05) to identify 12 PMIs with a Log2 (corrected fold change) of >2 and two PMIs with a Log2 (corrected fold change) <-2 in the FicD^WT screen (Fig. 1B and SI Appendix, Table S2). Hits were additionally triaged based on detection of multiple adducts of the metabolite in a single dataset (FPP and […] in Fig. 1B) and identification of the same metabolites across three or more of the FicD construct screens (Fig. 1C). Three chemical classes passed this initial triage: adenosine nucleotides, isoprenoid diphosphates, and thyroid hormone intermediates (Fig. 1 B and C and SI Appendix, Tables S2–S5).
22°C. Induced cultures were then harvested by centrifugation at 8000G for 15 minutes at 4°C and […]
Bacterial pellets were resuspended in 30-50mL of 50mM Tris pH 7.4/150mM NaCl/10% glycerol with one Roche cOmplete EDTA-Free Protease inhibitor cocktail tablet (cat no. COEDTAF-RO).
Triton-X100 to a final concentration of 0.2%, Chicken-egg lysozyme to a final concentration of 0.4ug/mL, and 2-5uL of Millipore Benzonase Nuclease (cat no. 70664) were added to bacterial suspension prior to sonication at 40-50% amplitude for 1-3 minutes in pulses of 5 seconds on and 30 seconds off on ice with a Sonics VCX 750 Ultrasonicator. Bacterial lysate was then clarified by centrifugation at 30,000 x g for 30 minutes at 4°C.
Clarified lysate was rotated with Qiagen NiNTA agarose beads (cat no. 30210) for 1-2 hours at 4°C. The beads were then transferred to a 15mL conical vial, resuspended in 10-15mL wash buffer (50mM Tris pH 7.4/150mM NaCl/10% glycerol/0.2% Triton-X 100/10mM imidazole), and spun down at 1000G for 1 minute at 4°C, after which the supernatant was aspirated from the beads. This washing step was repeated 2-4 times to rinse bacterial lysate from the beads prior to on-column washing. The beads were then transferred to BioRad Econopac 20mL bed volume column (cat no.
7321010) and washed with 10-15mL of wash buffer (repeated at least three times), 10mL of ATP wash (50mM Tris pH 7.4/300mM KCl/10mM MgCl2/500uM ATP, repeated once), and finally with 10-15mL wash buffer without Triton-X 100 (repeated at least three times). Protein was eluted in 500μL-1mL elution buffer (50mM Tris pH 7.5/150mM NaCl/10% glycerol/0.5% CHAPS). […]

FicD^E234G = molecular target: T3, FicD^E234G (Homo sapiens, UniProt Q9BVA6, E234G); assay: MIDAS metabolite screen, FicD^E234G; format: binding; conditions: cutoff Q < 0.05 and |Log2 corrected fold change| > 2, metabolites 5 µM
T3 construct: soluble ER luminal domain (residues 105 to 458) of wild-type human FicD and three mutants; 6xHis-Sumo (N, cleaved yes); made in house; host or cells: Rosetta(DE3) E. coli
T3 sequence (Q9BVA6 105-458 E234G): T1 sequence (Q9BVA6 105-458) with E130G

| Compound | inhibition of deAMPylation activity of FicD^WT (FicD^WT [1]) | inhibition of AMPylation of Δ26hBiP^T229A by FicD^WT (FicD^WT [2]) | binding to FicD^L258D by DSF (FicD^L258D [3]; presence of 5 mM MgCl2) | MIDAS protein-metabolite interaction (enrichment/depletion) (FicD^WT [4]) | MIDAS protein-metabolite interaction (enrichment/depletion) (FicD^L258D [5]) | MIDAS protein-metabolite interaction (enrichment/depletion) (FicD^E234G) | maximal Tm shift at saturating ligand concentration (FicD^L258D [3]; FicD^L258D, 5 mM MgCl2) | binding to FicD^L258D by DSF (FicD^L258D [3]; absence of MgCl2) |
| --- | --- | --- | --- | --- | --- | --- | --- | --- |
| CC(C)=CCC/C(C)=C\CC/C(C)=C\COP(=O)(O)O [FMP, farnesyl-monophosphate] | did not affect | did not | did not bind |  |  |  |  |  |
| deoxyadenosine diphosphate [dADP] |  |  | binding | significantly enriched | significantly enriched | significantly enriched | ~ 11 °C | did not bind |
| O=CC(=O)O [glyoxylic acid] |  |  |  | significantly depleted |  |  |  |  |
| CC(C)=CCOP(=O)(O)OP(=O)(O)O [DMAPP, dimethylallyl-pyrophosphate] | did not affect | did not | did not bind |  |  |  |  |  |
| Nc1ncnc2c1ncn2[C@@H]1O[C@H](COP(=O)(O)OP(=O)(O)OP(=O)(O)O)[C@@H](O)[C@H]1O [ATP, adenosine triphosphate] |  |  | did not show saturation |  |  | did not pass the significance cutoff |  | did not bind |
| CC(C)=CCC/C(C)=C/COP(=O)(O)O [GMP, geranyl-monophosphate] | did not affect | did not | did not bind |  |  |  |  |  |

Now from value to compound, other results behind:

| inhibition of deAMPylation activity of FicD^WT (FicD^WT [1]) | inhibition of AMPylation of Δ26hBiP^T229A by FicD^WT (FicD^WT [2]) | binding to FicD^L258D by DSF (FicD^L258D [3]; presence of 5 mM MgCl2) | Compound | MIDAS protein-metabolite interaction (enrichment/depletion) (FicD^WT [4]) | MIDAS protein-metabolite interaction (enrichment/depletion) (FicD^L258D [5]) | MIDAS protein-metabolite interaction (enrichment/depletion) (FicD^E234G) | maximal Tm shift at saturating ligand concentration (FicD^L258D [3]; FicD^L258D, 5 mM MgCl2) | binding to FicD^L258D by DSF (FicD^L258D [3]; absence of MgCl2) |
| --- | --- | --- | --- | --- | --- | --- | --- | --- |
| did not affect | did not | did not bind | CC(C)=CCC/C(C)=C/CC/C(C)=C/CO [farnesol] |  |  |  |  |  |
| did not affect | did not | did not bind | CC(C)=CCC/C(C)=C/CO [geraniol] |  |  |  |  |  |
| did not affect | did not | did not bind | CC(O)(CCOP(=O)(O)OP(=O)(O)O)CC(=O)O (stereo not shown) [MVAPP, mevalonate-pyrophosphate] |  |  |  |  |  |
